Data: patent publication US11311522B1 (Cavion, Inc., priority 2018, dated 2022)

Experiment: PN001/Part I: safety and tolerability
Assay type: in vivo, human
Description: Safety was monitored throughout by adverse events, vital signs, and repeated clinical and laboratory evaluations. […] All adverse events were mild or moderate and severity and transient.

Q: Which Abnormal physical sensation (4 mg) does the source give for `CC(C)c1ccc(CC(=O)N[C@H](C)c2ccc(OCC(F)(F)F)cn2)cc1` [CX-8998] here?
A: 0 n (%)

Q: What about the “At least 1 adverse event” value (4 mg) of the same compound?
A: 1 (16.7) n (%)

Q: What about the Dizziness (4 mg) of the same compound?
A: 0 n (%)

Q: And the Drowsiness (4 mg)?
A: 0 n (%)

Q: And the Elevated mood (4 mg)?
A: 0 n (%)

Q: And the Euphoric mood (4 mg)?
A: 0 n (%)

Q: What about the “Eye Disorders” value (4 mg) of the same compound?
A: 1 (16.7) n (%)

Q: And the Fatigue (4 mg)?
A: 0 n (%)

Q: And the Feeling abnormal (4 mg)?
A: 1 (16.7) n (%)

Q: And the Floating feeling (4 mg)?
A: 0 n (%)

Q: And the “Gastro-intestinal Disorders” value (4 mg)?
A: 0 n (%)

Q: And the Hangover effect (4 mg)?
A: 0 n (%)

Q: What about the Headache (4 mg) of the same compound?
A: 0 n (%)

Q: What about the Indifference (4 mg) of the same compound?
A: 0 n (%)

Q: What about the “Injury, Poisoning and Procedural Complications” value (4 mg) of the same compound?
A: 0 n (%)

Q: And the Insomnia (4 mg)?
A: 0 n (%)

Q: And the Intoxication (4 mg)?
A: 0 n (%)

Q: And the Irritability (4 mg)?
A: 0 n (%)

Q: What about the Lethargy (4 mg) of the same compound?
A: 0 n (%)

Q: And the “Nervous System Disorders” value (4 mg)?
A: 0 n (%)

Q: What about the Paraesthesia (4 mg) of the same compound?
A: 0 n (%)

Q: And the Paraesthesia oral (4 mg)?
A: 0 n (%)

Q: What about the Paraesthesia tongue (4 mg) of the same compound?
A: 0 n (%)

Q: What about the “Psychiatric Disorders” value (4 mg) of the same compound?
A: 0 n (%)

Q: What about the Racing thoughts (4 mg) of the same compound?
A: 0 n (%)

Q: What about the Relaxed (4 mg) of the same compound?
A: 0 n (%)

Q: What about the Sensory disturbance (4 mg) of the same compound?
A: 0 n (%)

Q: What about the Vision blurred (4 mg) of the same compound?
A: 0 n (%)

Q: And the Visual disturbance (4 mg)?
A: 1 (16.7) n (%)

Q: What about the Vivid dreams (4 mg) of the same compound?
A: 0 n (%)

Q: What about the Abnormal physical sensation (8 mg) of the same compound?
A: 0 n (%)

Q: And the “At least 1 adverse event” value (8 mg)?
A: 1 (16.7) n (%)

Q: And the Dizziness (8 mg)?
A: 0 n (%)

Q: What about the Drowsiness (8 mg) of the same compound?
A: 0 n (%)

Q: And the Elevated mood (8 mg)?
A: 0 n (%)

Q: What about the Euphoric mood (8 mg) of the same compound?
A: 0 n (%)

Q: And the “Eye Disorders” value (8 mg)?
A: 1 (16.7) n (%)

Q: And the Fatigue (8 mg)?
A: 0 n (%)

Q: And the Feeling abnormal (8 mg)?
A: 0 n (%)

Q: What about the Floating feeling (8 mg) of the same compound?
A: 0 n (%)

Q: What about the “Gastro-intestinal Disorders” value (8 mg) of the same compound?
A: 1 (16.7) n (%)

Q: What about the Hangover effect (8 mg) of the same compound?
A: 0 n (%)

Q: What about the Headache (8 mg) of the same compound?
A: 0 n (%)

Q: And the Indifference (8 mg)?
A: 0 n (%)

Q: And the “Injury, Poisoning and Procedural Complications” value (8 mg)?
A: 0 n (%)

Q: And the Insomnia (8 mg)?
A: 0 n (%)

Q: What about the Intoxication (8 mg) of the same compound?
A: 0 n (%)

Q: And the Irritability (8 mg)?
A: 0 n (%)

Q: And the Lethargy (8 mg)?
A: 0 n (%)

Q: And the “Nervous System Disorders” value (8 mg)?
A: 1 (16.7) n (%)

Q: What about the Paraesthesia (8 mg) of the same compound?
A: 0 n (%)

Q: What about the Paraesthesia oral (8 mg) of the same compound?
A: 1 (16.7) n (%)

Q: What about the Paraesthesia tongue (8 mg) of the same compound?
A: 0 n (%)

Q: And the “Psychiatric Disorders” value (8 mg)?
A: 0 n (%)

Q: And the Racing thoughts (8 mg)?
A: 0 n (%)

Q: What about the Relaxed (8 mg) of the same compound?
A: 0 n (%)

Q: And the Sensory disturbance (8 mg)?
A: 0 n (%)

Q: What about the Vision blurred (8 mg) of the same compound?
A: 0 n (%)

Q: What about the Visual disturbance (8 mg) of the same compound?
A: 1 (16.7) n (%)

Q: And the Vivid dreams (8 mg)?
A: 0 n (%)

Q: What about the Abnormal physical sensation (8 mg evening) of the same compound?
A: 1 (16.7) n (%)

Q: What about the “At least 1 adverse event” value (8 mg evening) of the same compound?
A: 5 (83.3) n (%)

Q: What about the Dizziness (8 mg evening) of the same compound?
A: 0 n (%)

Q: What about the Drowsiness (8 mg evening) of the same compound?
A: 1 (16.7) n (%)

Q: And the Elevated mood (8 mg evening)?
A: 2 n (%)

Q: And the Euphoric mood (8 mg evening)?
A: 2 n (%)

Q: What about the “Eye Disorders” value (8 mg evening) of the same compound?
A: 1 (16.7) n (%)

Q: And the Fatigue (8 mg evening)?
A: 0 n (%)

Q: What about the Feeling abnormal (8 mg evening) of the same compound?
A: 1 (16.7) n (%)

Q: And the Floating feeling (8 mg evening)?
A: 0 n (%)

Q: And the “Gastro-intestinal Disorders” value (8 mg evening)?
A: 0 n (%)

Q: And the Hangover effect (8 mg evening)?
A: 0 n (%)

Q: What about the Headache (8 mg evening) of the same compound?
A: 1 (16.7) n (%)

Q: And the Indifference (8 mg evening)?
A: 0 n (%)

Q: And the “Injury, Poisoning and Procedural Complications” value (8 mg evening)?
A: 0 n (%)

Q: What about the Insomnia (8 mg evening) of the same compound?
A: 0 n (%)

Q: And the Intoxication (8 mg evening)?
A: 0 n (%)

Q: And the Irritability (8 mg evening)?
A: 0 n (%)

Q: What about the Lethargy (8 mg evening) of the same compound?
A: 0 n (%)

Q: What about the “Nervous System Disorders” value (8 mg evening) of the same compound?
A: 3 (50.0) n (%)

Q: And the Paraesthesia (8 mg evening)?
A: 1 (16.7) n (%)

Q: And the Paraesthesia oral (8 mg evening)?
A: 0 n (%)

Q: What about the Paraesthesia tongue (8 mg evening) of the same compound?
A: 0 n (%)

Q: What about the “Psychiatric Disorders” value (8 mg evening) of the same compound?
A: 4 n (%)

Q: And the Racing thoughts (8 mg evening)?
A: 1 (16.7) n (%)

Q: And the Relaxed (8 mg evening)?
A: 0 n (%)

Q: And the Sensory disturbance (8 mg evening)?
A: 0 n (%)

Q: What about the Vision blurred (8 mg evening) of the same compound?
A: 1 (16.7) n (%)

Q: What about the Visual disturbance (8 mg evening) of the same compound?
A: 0 n (%)

Q: And the Vivid dreams (8 mg evening)?
A: 1 (16.7) n (%)
